The values below are quoted from earlier work in patent US20120322868A1, “FOOD PRODUCTS, PREPARATION, AND THERAPEUTIC METHODS” (priority 2010, published 2012).

Data set [1] deals with immunological functions and plasma albumin. The conditions noted are these: HIV+ patients.
A further data set concerns atherosclerosis. As to conditions: apolipoprotein E-deficient mice.
Data set [2] deals with insulin levels and insulin sensitivity. As to conditions: hyperinsulinemic patients with polycystic ovary syndrome.
The next data set has as its system cancer. As to conditions: dietary protein, laboratory animals (Campbell).

For `CC(=O)N[C@@H](CS)C(=O)O` [NAC, N-acetyl-L-cysteine], in data set [1], the “immunological functions and plasma albumin concentrations” value is given as “marked increase”. Further, the atherosclerosis entry with atherosclerosis is reported as “reduce atherosclerosis”. Besides, the “insulin levels and insulin sensitivity” value in data set [2] was “improves insulin levels and insulin sensitivity”.
For casein, the promotion of cancer entry in the data set with cancer is reported as “promotes cancer”.
